Source: ChEMBL document CHEMBL5608113, “Targeting of CAF-induced therapy resistance in CRC organoid-stroma co-cultures” (2024)

Experiments:
Format in all cases: functional, Homo sapiens
Settings in all cases: Homo sapiens, read-out: Cell Viability; for viability at 10 µM: Concentration 10 uM; for viability at 1 µM: Concentration 1 uM
[1] = system: Colon cancer organoid; assay: Targeting of F14 CAF-induced therapy resistance in O14 CRC organoid-stroma co-culture. Cell viability is reported with Gefitinib.
[2] = system: Colon cancer organoid; assay: Targeting of F14 CAF-induced therapy resistance in O14 CRC organoid-stroma co-culture. Cell viability is reported without Gefitinib.
[3] = system: Colon cancer organoid; assay: Targeting of F14 CAF-induced therapy resistance in O23 CRC organoid-stroma co-culture. Cell viability is reported with SN-38.
[4] = system: Colon cancer organoid; assay: Targeting of F14 CAF-induced therapy resistance in O23 CRC organoid-stroma co-culture. Cell viability is reported without Gefitinib.
[5] = system: Colon cancer organoid; assay: Targeting of F14 CAF-induced therapy resistance in O23 CRC organoid-stroma co-culture. Cell viability is reported with Gefitinib.

Row | SMILES | viability at 10 µM [1] [%] | viability at 10 µM [2] [%] | viability at 10 µM [3] [%] | viability at 10 µM [4] [%] | viability at 10 µM [5] [%] | viability at 1 µM [1] [%] | viability at 1 µM [2] [%] | viability at 1 µM [3] [%] | viability at 1 µM [4] [%] | viability at 1 µM [5] [%]
1 | COc1cc2c(cc1NS(=O)(=O)c1ccc(Br)cc1C)n(C)c(=O)n2C | 57.4 | 86.7 | 117 | 169 | 69.8 | – | – | – | – | –
2 | CNCCN1CCC(c2cc(CN(C)C(=O)c3cccc(Oc4ccccc4)c3)ccn2)CC1 | 40.3 | 80.6 | 84.5 | 118 | 71.9 | – | – | – | – | –
3 | CC1=C(C)C(=O)C(C(C)(C)CC(=O)N(CCCCSC[C@H]2O[C@@H](n3cnc4c(N)ncnc43)[C@H](O)[C@@H]2O)Cc2cccc(-c3ccc(Cl)cc3)c2)=C(C)C1=O | 59.5 | 89.1 | 69.9 | 92.3 | 57.2 | – | – | – | – | –
4 | O=C(O)[C@H]1[C@H](Cn2nnc3ccccc3c2=O)CC[C@@H]1C(=O)c1ccc(OCCC2CCOCC2)cc1 [BAY-7598] | – | – | – | – | – | 48.5 | 122 | 99.1 | 130 | 41.8
5 | CCCOc1ccc([C@H]2[C@H](C(=O)O)[C@@H](c3ccc4c(c3)OCO4)CN2CC(=O)Nc2c(CC)cccc2CC)cc1 [A-192621] | – | – | – | – | – | 27.4 | 117 | 50 | 112 | 48.1
6 | CC(=O)c1cc(-c2ccccc2OCC2CC2)c2ncccn12 | 73.2 | 80.2 | 102 | 142 | 76.3 | – | – | – | – | –
7 | Cc1cc(C)cc([C@H]2c3cc(C)ccc3NC(=O)CN2C(=O)c2ccc(Br)s2)c1 | 63.7 | 96.4 | 86.1 | 84.3 | 63.4 | – | – | – | – | –
8 | Cc1c(N2CCNCC2)nc2ccc(Br)cc2c1C(=O)NC[C@H](CCC(=O)O)c1ccccc1Cl [BAY-403] | 29.6 | 85.5 | 87.2 | 60.5 | 48 | – | – | – | – | –
9 | N#CC1(c2ccccn2)CCN(Cc2cc(C(=O)N3CCCC3)c(=O)n3ccccc23)CC1 [MSD-M1PAM-NC] | 35.2 | 93.4 | 63.2 | 136 | 81.2 | – | – | – | – | –
10 | CCn1c(-c2nc3cc(C(=O)N4CCCC(N)C4)ccc3n2C)cc2ccccc21 (stereo not given) | 65 | 76.9 | 79.2 | 139 | 83.2 | – | – | – | – | –
11 | Cc1cn(-c2cc(NC(=O)c3ccc4c(c3)CN(c3cncnc3)C[C@@H]4C)cc(C(F)(F)F)c2)cn1 | 50.6 | 149 | 57.5 | 115 | 63.8 | – | – | – | – | –
12 | CC(C)N(CCCNC(=O)Nc1ccc(C(C)(C)C)cc1)C[C@H]1O[C@@H](n2cc(Br)c3c(N)ncnc32)[C@H](O)[C@@H]1O | 45.4 | 69.6 | 19.8 | 41.3 | 34 | – | – | – | – | –
13 | CN(C)c1ncnc(-c2ccc3nc(Nc4cc(CN5CCN(C(=O)CC(F)(F)F)CC5)ccn4)[nH]c3c2)c1Cl [BAY-440] | 68.9 | 114 | 92.8 | 160 | 78.1 | – | – | – | – | –
14 | CC(=O)Nc1nc(CN2CCC[C@H](Cc3cc(C)nc(C)c3)C2)cs1 [JNJ-73924149] | 46.2 | 109 | 79.9 | 125 | 79.3 | – | – | – | – | –
15 | COc1ccccc1C(=O)Nc1cc2c(cc1N1CCCC1)n(C)c(=O)n2C | 46.1 | 114 | 84.2 | 115 | 79 | – | – | – | – | –
16 | Cc1c(Nc2ccc(S(=O)(=O)N3CCN(C)CC3)cc2F)nc2ccc(Nc3cnn(C4CC4)c3)cn2c1=O | 53 | 68.6 | 71.2 | 118 | 115 | – | – | – | – | –
17 | CCC(=O)N1CCOc2c(cc(-c3ccc(OC)c(OC)c3)cc2OCC2CCCN(C)C2)C1 (stereo not given) | 74.7 | 102 | 96.1 | 119 | 60.4 | – | – | – | – | –
18 | CS(=O)(=O)NCC[C@H](NC(=O)c1cncc2c1cnn2-c1ccc(F)cc1)c1ccnc(S(C)(=O)=O)c1 [BI 9307] | – | – | – | – | – | 37.4 | 105 | 70.6 | 114 | 116
19 | CC1CCN(c2ccnc(NCc3cn(C)cn3)n2)CC1 [TP-040] | 55 | 128 | 62.9 | 107 | 81.4 | – | – | – | – | –
20 | CN1CCN(c2ccc(-c3cccc(CN4CCOCC4)c3)cc2NC(=O)c2c[nH]c(=O)cc2C(F)(F)F)CC1 | 65.8 | 99.7 | 102 | 131 | 62.5 | – | – | – | – | –

Row | SMILES | viability at 10 µM [1] [%] | viability at 10 µM [2] [%] | viability at 10 µM [3] [%] | viability at 10 µM [4] [%] | viability at 10 µM [5] [%] | viability at 1 µM [1] [%] | viability at 1 µM [2] [%] | viability at 1 µM [3] [%] | viability at 1 µM [4] [%] | viability at 1 µM [5] [%]
21 | CCCOc1ccn2c(C(C)=O)cc(-c3cccc(OC)c3)c2c1 | 64.8 | 113 | 92.8 | 112 | 74.1 | – | – | – | – | –
22 | COc1cc(Nc2ccnc3ccc(Br)cc23)cc(OC)c1OC | 8.76 | 18.2 | 12.5 | 35 | 6.32 | – | – | – | – | –
23 | CC(=O)c1c(NS(C)(=O)=O)c2cc(-c3ccc(Cl)cc3)c(-c3ccc(Cl)cc3Cl)nc2n(C)c1=O [MRL-CB1-NC] | 53.2 | 148 | 60.4 | 92.4 | 48.2 | – | – | – | – | –
24 | COc1cc(Nc2ncc3c(n2)-c2ccc(Cl)cc2C(c2c(F)cccc2OC)=NC3)ccc1C(=O)O [ALISERTIB] | 7.3 | 16.2 | 46.6 | 32.9 | 13.7 | – | – | – | – | –
25 | CN(C(=O)c1cnn2cccnc12)c1cc2c(cc1N1CCOCC1)C(=O)N(C[C@@H](F)C(C)(C)O)C2 | 38.6 | 139 | 61.8 | 92.3 | 39.2 | – | – | – | – | –
26 | C[C@@H]1CC(=O)Nc2cccc(-c3ccc4c(c3)c(-c3cnn(C)c3)nn4C)c2N1 | 21.1 | 43.6 | 70.4 | 115 | 69 | – | – | – | – | –
27 | COc1ccc2c(O[C@@H]3C[C@H]4C(=O)N[C@]5(C(=O)O)CC5/C=C\CCCCC[C@H](NC(=O)OC5CCCC5)C(=O)N4C3)cc(-c3csc(NC(=O)C(C)C)n3)nc2c1C (stereo not given in full) [BI 1230] | 50 | 152 | 77.1 | 141 | 63.1 | – | – | – | – | –
28 | CN(C)C(=O)/C(C#N)=C/c1ccc(-c2nc3cnc4c(ccn4C)c3n2C2CCCCC2)o1 | 63.9 | 107 | 46.5 | 83.6 | 53.6 | – | – | – | – | –
29 | COc1cc(C#N)ccc1S(=O)(=O)Nc1ccc2c(c1)cc(C)c(=O)n2C | 66.9 | 101 | 127 | 149 | 86 | – | – | – | – | –
30 | CC(=O)Nc1c(F)cc(C(=O)N[C@H]2CC[C@H](O)CC2)cc1O[C@@H](C)c1ccccc1 [GSK046] | 25.9 | 121 | 48.8 | 100 | 55.8 | – | – | – | – | –
31 | Cc1cccc(-c2cnc3occ(-c4ccc(C(=O)O)c(C5CCCC5)c4)c3c2)c1 | 52.4 | 112 | 66.7 | 111 | 75.6 | – | – | – | – | –
32 | Cn1cc(CCn2cnc(-c3cnn(C)c3)c2-c2ccc(C#N)cc2)cn1 | 71.4 | 105 | 92.5 | 141 | 63.6 | – | – | – | – | –
33 | Cc1c(Oc2ccc(F)cc2)c(OC(C)C)nn1-c1ccc(C2CC2)cn1 [IPP/CNRS-A019] | 50.2 | 84.4 | 75.2 | 147 | 86.4 | – | – | – | – | –
34 | CCC(=O)N[C@@H]1CC[C@H](C(=O)N(C)c2ccc(-c3nc4ccccc4o3)cc2)C1 [BI 99990] | 37.6 | 150 | 100 | 154 | 69.7 | – | – | – | – | –
35 | CCS(=O)(=O)Nc1ccc(Oc2ccc(F)cc2F)c(-c2cn(C)c(=O)c3[nH]ccc23)c1 [MIVEBRESIB] | 1.95 | 5.68 | 25.4 | 37.5 | 29.2 | – | – | – | – | –
36 | Cn1c(C2(NC(=O)c3ccc(NCC4CCCCC4)nc3)CCC2)nc2ccc(/C=C/C(=O)O)cc21 [BI 7656] | 45.1 | 101 | 69.9 | 131 | 77.7 | – | – | – | – | –
37 | CCOC(=O)CCNc1cc(N2CCc3ccccc3CC2)nc(-c2cccnc2)n1 | 57.2 | 60.1 | 79.9 | 140 | 90.8 | – | – | – | – | –
38 | CC(C)(O)[C@H](F)CN1Cc2cc(NC(=O)c3cnn4cccnc34)c(N3CCOCC3)cc2C1=O | 23.3 | 129 | 51.5 | 85.8 | 38.7 | – | – | – | – | –
39 | O=C1[C@H](Cc2ccc(O)cc2)N2C(=O)CCN(C(=O)NCc3ccccc3)[C@H]2CN1Cc1cccc2ccccc12 | 22 | 37.1 | 103 | 125 | 85.3 | – | – | – | – | –
